Experiments:
[1] = tested on: LR73 cells; test: In vitro engulfment assay: apoptotic thymocyte uptake by LR73 cells; assay type: cell-based, hamster
Experimental: LR73, SVEC-40, BEAS-2B, and 16HBE14o-cells were seeded in a 24 well plate. Thymocytes were isolated from 4-6 week old mice and induced to undergo apoptosis with dexamethasone. Thymocytes or prepared microvesicles were then stained with either CypHer5E (GE Healthcare, PA15401) or TAMRA (Invitrogen, C-1171). LR73 and SVEC-40 cells were incubated with apoptotic thymocytes at a 1:10 phagocyte to target ratio, BEAS-2B at a 1:5 phagocyte to target ratio, and 16HBE14o—at a 1:20 phagocyte to target ratio for 2 hours. Mouse IGF-I (Sigma-Aldrich), human IGF-I (Sigma-Aldrich), human IGF-II (Sigma-Aldrich) were added to the phagocytes at the same time as addition of apoptotic targets. For IGFBP3 studies, IGFBP3 (Sigma-Aldrich) was added to media or supernatant from J774 cells for one hour to allow IGFBP3 to bind to any available IGF-I, then the mix is added to phagocytes along with apoptotic targets. For all pharmacological studies, phagocytes were pre-incubated with the compounds listed below for one hour prior to addition of apoptotic targets: cytochalasin D (Sigma-Aldrich, C8273, 1 μM), Latrunculin A (Tocris, 3973, 150 nM), CK-666 (Tocris, 3950, 25 μM-100 μM), OSI-906 (Selleckchem, S1091, 5 nM-40 nM), NVP-AEW541 (Selleckchem, S1034, 25 nM-100 nM), Rapamycin (Sigma-Aldrich, R0395, […]), MK-2206 2HCl (Selleckchem, S1078, 10 nM-1 U0126-EtOH (Selleckchem, S1102, […]), Wortmannin (Sigma-Aldrich, W1628, 50 nM-200 nM), Y27632 (Calbiochem, 688000, 3.75 μM-15 μM), or GSK269962 (Tocris, 4009, 80 nM-2 μM). […] Targets were then washed off three times with PBS, and the cells were dissociated from the plate with trypsin and the engulfment assessed by flow cytometry.

[2] = tested on: BEAS-2B cells; test: In vitro engulfment assay: apoptotic cell uptake by BEAS-2B cells; assay type: cell-based; details: human IGF-I
Experimental: (§1) LR73, SVEC-40, BEAS-2B, and 16HBE14o-cells were seeded in a 24 well plate. Thymocytes were isolated from 4-6 week old mice and induced to undergo apoptosis with dexamethasone. Thymocytes or prepared microvesicles were then stained with either CypHer5E (GE Healthcare, PA15401) or TAMRA (Invitrogen, C-1171). LR73 and SVEC-40 cells were incubated with apoptotic thymocytes at a 1:10 phagocyte to target ratio, BEAS-2B at a 1:5 phagocyte to target ratio, and 16HBE14o—at a 1:20 phagocyte to target ratio for 2 hours. Mouse IGF-I (Sigma-Aldrich), human IGF-I (Sigma-Aldrich), human IGF-II (Sigma-Aldrich) were added to the phagocytes at the same time as addition of apoptotic targets. For IGFBP3 studies, IGFBP3 (Sigma-Aldrich) was added to media or supernatant from J774 cells for one hour to allow IGFBP3 to bind to any available IGF-I, then the mix is added to phagocytes along with apoptotic targets. […] Targets were then washed off three times with PBS, and the cells were dissociated from the plate with trypsin and the engulfment assessed by flow cytometry.

[3] = tested on: LR73 cells; test: In vitro engulfment assay: apoptotic thymocyte uptake by LR73 cells; assay type: cell-based, hamster; details: LR73 cells pretreated with IGF-I, washed
[4] = tested on: SVEC-40 endothelial cells; test: In vitro engulfment assay: apoptotic thymocyte uptake by SVEC-40 cells; assay type: cell-based, mouse; details: IGF-1 treatment
Experimental: as §1

[5] = tested on: phosphatidylserine (PtdSer) on apoptotic thymocytes; test: Annexin V binding to apoptotic thymocytes; assay type: cell-based, mouse; details: n=6
[6] = tested on: IGF-1R, Akt and Erk1/2 phosphorylation in LR73 cells; test: Immunoblotting of signaling in LR73 cells; assay type: cell-based, hamster; details: LR73 cells, IGF-1 treatment
Experimental: LR73, J774, or BEAS-2B cells were seeded in a 60 mm dish at a concentration of 5×10^5. […] Cells were lysed in RIPA buffer and used in Western blots. The blots were probed for phospho-Erk1/2 (Cell Signaling Technology, #4370), phospho-Akt (Cell Signaling Technology, #4060), phospho-IGF-1R (Cell Signaling, #3024), total Erk2 (Santa Cruz Biotechnology, #sc-154-G), total Akt (Cell Signaling Technology, #4691), total IGF-1R (Cell Signaling, #9750), and anti-B-actin-HRP (Sigma-Aldrich, #A3854) followed by chemiluminescence detection.

[7] = tested on: alveolar macrophages; test: In vivo engulfment assay: alveolar macrophages; design: species or system mouse; details: same IGF-1 treated mice
Experimental: (§2) CCSP-Cre/YFP mice were administered PBS or 1 μg of IGF-1 intranasally. One hour later, 100 million CypHer5E-labelled apoptotic thymocytes with or without IGF-I were injected intranasally for 3.5 hours. The BAL fluid was harvested and the lungs excised, minced, and digested into a single cell suspension. The cells were then stained with appropriate markers: CD11c and Siglec F for alveolar macrophage markers and EpCam (along with YFP expression) for airway epithelial cells and analyzed by flow cytometry to assess apoptotic cell uptake by the airway epithelial cells and the alveolar macrophages.

[8] = tested on: J774 macrophage cells; test: Apoptotic thymocyte phagocytosis by J774 macrophage cells; assay type: cell-based; details: even with supra-physiological concentrations of IGF-1, every time point
[9] = tested on: IGF-1R and Akt phosphorylation in macrophages; test: Immunoblotting of IGF-1R and Akt phosphorylation in macrophages; assay type: cell-based; details: 100 ng/mL mouse IGF-1
Experimental: LR73, J774, or BEAS-2B cells were seeded in a 60 mm dish at a concentration of 5×10^5. Cells were serum-starved for 6 hours and then stimulated with 100 ng/mL of IGF-1 for various time points. Cells were lysed in RIPA buffer and used in Western blots. The blots were probed for phospho-Erk1/2 (Cell Signaling Technology, #4370), phospho-Akt (Cell Signaling Technology, #4060), phospho-IGF-1R (Cell Signaling, #3024), total Erk2 (Santa Cruz Biotechnology, #sc-154-G), total Akt (Cell Signaling Technology, #4691), total IGF-1R (Cell Signaling, #9750), and anti-B-actin-HRP (Sigma-Aldrich, #A3854) followed by chemiluminescence detection.

[10] = tested on: YFP airway epithelial cells; test: In vivo engulfment assay: airway epithelial cells; design: species or system mouse; details: 1 μg IGF-1 intranasally
Experimental: as §2

[11] = tested on: bone marrow derived macrophages; test: Apoptotic cell engulfment by bone marrow derived macrophages; assay type: cell-based, mouse; details: even with supra-physiological concentrations of IGF-1
Experimental: To obtain bone-marrow derived macrophages, femurs were removed from 8 week old mice and flushed with 5 mL of sterile PBS containing 5% FBS. The cell suspension was centrifuged, treated with red blood cell lysis buffer, washed, and then plated onto sterile petri dishes in DMEM containing 10% L929 media, 10% FBS and 1% penicillin/streptomycin/glutamine (PSQ). Media was replenished every 2 to 3 days and differentiated cells were used at day 6 post-harvest. Resident peritoneal macrophages were obtained by flushing the peritoneal cavity of mice with 10 mL of cold PBS containing 5% FBS. Collected cells were spun down, resuspended in X-VIVO 10 (Lonza) and plated at a concentration of 3×10^5 cells per well in a 24 well plate for IGF-1 secretion assays, and 5×10^5 per well in a 24 well plate for engulfment assays. Floating cells were washed the next day and remaining peritoneal macrophages were used 2 days after isolation. Alveolar macrophages were isolated by flushing the lungs with 1 mL of cold PBS instilled intratracheally (five flushes). Collected cells were centrifuged, resuspended in F12K media containing 10% FBS and 1% PSQ, and seeded at 1×10^5 cells per well in a 48-well plate. All floating cells were washed away the next day and remaining cells were used in assays 2 days after isolation.

insulin-like growth factor I [IGF-1]
engulfment with IGF-1 added simultaneously with apoptotic cells ([1]; data not shown): inhibited engulfment similar to pre-treated cells | apoptotic cell uptake (engulfment) by LR73 cells ([1]; soluble mediator alone, IGF-I at concentrations reported in serum (100-600 ng/mL), other factors over a range of concentrations): significantly dampened apoptotic cell uptake | apoptotic cell uptake by LR73 cells with macrophage produced IGF-1 ([1]; supernatant of J774 cells treated with rIL-4 for 24 hrs): could also suppress apoptotic cell uptake by LR73 cells | apoptotic cell uptake by BEAS-2B cells [2]: engulfment dampening effect of IGF-1 was also seen | engulfment after washing phagocytes pre-treated with IGF-1 (reversibility) [3]: near complete restoration of engulfment | apoptotic thymocyte uptake by SVEC-40 cells [4]: engulfment dampening effect of IGF-1 was also seen | masking of phosphatidylserine on apoptotic cells (Annexin V binding) [5]: not due to masking phosphatidylserine | phosphorylation of Akt [6]: elicited phosphorylation of Akt | engulfment of apoptotic cells or liposomes by lung macrophages in vivo [7]: unaffected in their ability to engulf these targets | corpse uptake by J774 cells [8]: did not affect corpse uptake | early signaling in macrophages (IGF-1R and Akt phosphorylation) [9]: initiated early signaling in macrophages | apoptotic cell engulfment by YFP airway epithelial cells in vivo ([10]; apoptotic thymocytes): decreased apoptotic cell engulfment | liposome uptake by YFP airway epithelial cells in vivo ([10]; liposomes): enhanced lipo some uptake | corpse uptake by bone marrow-derived macrophages [11]: did not affect corpse uptake

Reference: patent US20190282616A1, “MACROPHAGES REDIRECT PHAGOCYTOSIS BY NON-PROFESSIONAL PHAGOCYTES AND INFLUENCE INFLAMMATION” (University of Virginia Patent Foundation, priority 2016, published 2019)
